This is an account of results in patent publication US20100022613A1, “Compounds Having CRTH2 Antagonist Activity” (Oxagen Limited, priority 2008, published 2010).

Assay [1] addresses T1, CRTH2 receptor (Homo sapiens, UniProt Q9Y5Y4).
T1 construct: expressed in transfected cells; host or cells: Chinese Hamster Ovary (CHO) cells, membranes
T1 sequence (Q9Y5Y4 1-395): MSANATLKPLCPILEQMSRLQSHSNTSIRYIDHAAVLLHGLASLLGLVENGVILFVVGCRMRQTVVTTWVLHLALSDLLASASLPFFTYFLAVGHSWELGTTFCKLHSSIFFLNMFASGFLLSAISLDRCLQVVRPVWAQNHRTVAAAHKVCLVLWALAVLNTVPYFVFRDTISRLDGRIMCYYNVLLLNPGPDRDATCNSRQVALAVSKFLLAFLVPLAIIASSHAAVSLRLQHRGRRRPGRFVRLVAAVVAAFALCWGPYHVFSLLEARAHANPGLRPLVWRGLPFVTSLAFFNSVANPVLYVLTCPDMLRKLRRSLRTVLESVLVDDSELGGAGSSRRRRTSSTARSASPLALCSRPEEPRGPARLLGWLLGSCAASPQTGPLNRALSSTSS
The assay is described as follows: Radioligand binding assay ([3H]PGD2) on CHO/CRTH2 cell membranes. The conditions noted are these: [3H]PGD2 binding. As for the experimental part:
Chinese Hamster Ovary cells were transfected with CRTH2 or DP receptors (CHO/CRTH2 and CHO/DP) and were maintained in culture in a humidified atmosphere at 37° C. (5% CO2) in Minimum Essential Medium (MEM) supplemented with 10% foetal bovine serum, 2 mM glutamine, and 1 mg ml^−1 active G418. The cells were passaged every 2-3 days. For radioligand binding assay, cells were prepared in triple-layer flasks or in 175 cm^2 square flasks (for membrane preparation).
Membranes were prepared either from CHO/CRTH2 and CHO/DP cells, or from platelets (as a source of TP receptors). CHO cells grown to confluency were washed with PBS and detached using a Versene solution (15 ml per flask). When the cells were grown in 175 cm^2 square flask, they were collected by scrapping in PBS. The cell suspensions were centrifuged (1,700 rpm, 10 min, 4° C.) and resuspended in 15 ml of buffer (1× HBSS, supplemented with 10 mM HEPES, pH 7.3). Cell suspensions were then homogenised using an Ultra Turrax at setting 4-6 for 20 s. The homogenate was centrifuged at 1,700 rpm for 10 min and the supernatant was collected and centrifuged at 20,000 rpm for 1 h at 4° C. The resulting pellet was resuspended in buffer and stored at −80° C. in aliquots of 200-500 μl. The protein concentration was determined by the method of Bradford (1976), using bovine serum albumin as standard. The platelets were washed by centrifugation at 600×g for 10 min and resuspended in ice-cold assay buffer (10 mM Tris-HCl, pH 7.4, 5 mM Glucose, 120 mM NaCl, 10 μM indomethacin) and directly centrifuged at 20,000 rpm for 30 min at 4° C. The resulting pellet was treated as described above.
[^3H]PGD2 (160 Ci/mmol) binding experiments were performed on membranes prepared as described above. Assays were performed in a final volume of 100 μl of buffer (1× HBSS/HEPES 10 mM, pH 7.3). Cell membranes (15 μg) were preincubated at room temperature with varying concentration of competing ligand for 15 min. [^3H]PGD2 was then added and the incubation continued for a further one hour at room temperature. The reaction was terminated by the addition of 200 μl ice-cold assay buffer to each well, followed by rapid filtration through Whatman GF/B glass fibre filters using a Unifilter Cell harvester (PerkinElmer Life Sciences) and six washes of 300 μl of ice-cold buffer. The Unifilter plates were dried at room temperature for at least 1 h and the radioactivity retained on the filters was determined on a Beta Trilux counter (PerkinElmer Life Sciences), following addition of 40 μl of Optiphase Hi-Safe 3 (Wallac) liquid scintillation. Non specific binding was defined in the presence of 10 μM unlabelled PGD2. Assays were performed in duplicate.

The test system of assay [2] is PGD2-induced eosinophil shape change. Briefly: Human whole blood eosinophil shape change assay (PGD2-induced). The class given is cell-based. The conditions noted are these: 10 nM PGD2, read-out: IC50 for the effect on 10 nM PGD2-induced eosinophil shape change in whole blood. The method, then: Compounds 1-6 were assayed for their effect on PGD2 induced eosinophil shape change.
Compounds (1 μl, 200× final concentration) were added directly to 200 μl whole blood, mixed well and incubated for 15 min, 37° C., 5% CO2. After this time, cell shape was fixed by addition of 300 μl Cytofix™ buffer (BD Biosciences), 15 min on ice. 10 ml RBC lysis buffer was added to the fixed cells, incubated 5 min, at room temperature and centrifuged, 300×g for 5 min. Supernatant (containing lysed red cells) was removed and the lysis step was repeated. Leukocytes were resuspended in 250 μl RPMI/10% FCS and shape change analysed by FACS. Eosinophils were gated out based on their autofluorescence and 2000 eosinophil events were counted per sample. Data were analysed in triplicate.

A word on the Ki: it is a measure of affinity in units of concentration, obtained from inhibition or displacement. Read a low Ki as a stronger hold on the target. In assay [1], `Cc1c(Cc2ccc(S(=O)(=O)Cc3ccc(Cl)cc3)cc2)c2cc(F)ccc2n1CC(=O)O` [Compound 2, 2-(3-(4-(4-Chlorobenzylsulfonyl)benzyl)-5-fluoro-2-methyl-1H-indol-1-yl)acetic acid] registered a Ki of 5 nM. One may read the IC50 as the concentration needed to halve the response being measured. For the compound `Cc1c(Cc2ccc(S(=O)(=O)Cc3ccc(F)cc3)cc2)c2cc(F)ccc2n1CC(=O)O` [Compound 6, 2-(3-(4-(4-Fluorobenzylsulfonyl)benzyl)-5-fluoro-2-methyl-1H-indol-1-yl)acetic acid], the IC50 in assay [2] turned out to be 3 nM. The same compound displayed a Ki in assay [1] of 3 nM. In assay [1], `Cc1c(Cc2cccc(S(=O)(=O)Cc3ccc(F)cc3)c2)c2cc(F)ccc2n1CC(=O)O` [Compound 4, 2-(5-Fluoro-3-(3-(4-fluorobenzylsulfonyl)benzyl)-2-methyl-1H-indol-1-yl)acetic acid] returned a Ki of 1 nM. `Cc1c(Cc2cccc(S(=O)(=O)Cc3ccccc3)c2)c2cc(F)ccc2n1CC(=O)O` [Compound 3, 2-(3-(3-(Benzylsulfonyl)benzyl)-5-fluoro-2-methyl-1H-indol-1-yl)acetic acid]: the IC50 in assay [2] was 77 nM. In assay [1], this compound gave a Ki of 3 nM. The matching figures for `Cc1c(Cc2ccc(S(=O)(=O)Cc3ccccc3)cc2)c2cc(F)ccc2n1CC(=O)O` [Compound 1, 2-(3-(4-(Benzylsulfonyl)benzyl)-5-fluoro-2-methyl-1H-indol-1-yl)acetic acid]: 1 nM and 1 nM.

Take `Cc1c(Cc2ccccc2S(=O)(=O)Cc2ccccc2)c2cc(F)ccc2n1CC(=O)O` [Compound 5, 2-(3-(2-(Benzylsulfonyl)benzyl)-5-fluoro-2-methyl-1H-indol-1-yl)acetic acid]: the IC50 in assay [2] was 12 nM. The compound further registered a Ki in assay [1] of 3 nM.
